From patent publication US20050245508A1, “Treatment of malignant gliomas with TGF-beta inhibitors” (SCIOS, Inc., priority 2003, published 2005)

Experiments:
[1] = system: CCL64 mink lung epithelial cells; assay: CCL64 TGF-β bioassay (growth, crystal violet); format: cell-based
Protocol: FIG. 1. Prevention of the growth inhibitory effects of recombinant and glioma-derived TGF-b1 and TGF-b2 by a TGF-β inhibitor (Compound No. 79 in Table 2). A. CCL64 cells were exposed to human recombinant TGF-b1 (filled symbols) or TGF-b2 (open symbols) (10 ng/ml) in the absence or presence of increasing concentrations of Comopund No. 79 for 72 h. B. CCL64 cells were maintained in serum-free medium containing heat-activated glioma cell SN (1:1) in the absence or presence of Compound No. 79 for 72 h. Growth was assessed by crystal violet assay (mean and SD, n=3).
The levels of bioactive TGF-β were determined using the CCL64 bioassay. Briefly, […] CCL64 cells were adhered to 96 well plates for 24 h, full medium was replaced by serum-free medium, and the cells were exposed to recombinant TGF-β1/2 or glioma cell culture supernatants diluted in serum-free medium for 72 h. Growth was assessed by crystal violet staining at 72 h. Glioma cell supernatants were harvested from confluent cultures maintained for 48 h in serum-free medium and heat-treated (5 min, 85° C.) to activate latent TGF-β (Leitlein et al., J. Immunol., 166:7238-7243 (2001)).

[2] = system: LN-308 glioma cells; assay: Glioma cell growth, [methyl-3H]-thymidine incorporation; format: cell-based, human
Protocol: (§1) FIG. 2. Abrogation of autocrine TGF-β signaling in glioma cells by Compound No. 79. A. The cells were seeded at 10^4 cells/well in 96 well plates and cultured in the absence or presence of Compound No. 79 for 48 h in serum-free medium. Growth was assessed by [methyl-^3H]-thymidine incorporation at 48 h (*p<0.05, t-test). B. Lysates from untreated glioma cells or cells preexposed to Compound No. 79 (1 μM) for 24 h or exposed to TGF-b2 (5 ng/ml) for 1 h or both were assessed for the levels of p-Smad2 or total Smad2/3. Note that the antibodies were specific to p-Smad2 and total Smad 2 and 3, respectively.
(§2) The glioma cells and CCL64 cells were maintained in DMEM supplemented with 2 mM L-glutamine (Gibco Life Technologies, Paisley, UK), 10% FCS (Biochrom KG, Berlin, Germany) and penicillin (100 IU/ml)/streptomycin (100 μg/ml) (Gibco). Growth and viability of the glioma cells was examined by crystal violet, LDH release (Roche, Mannheim, Germany) and trypan blue dye exclusion assays. To assess clonogenicity, 500 SMA-560 cells were seeded into 6 well plates (9.4 cm^2). After formation of visible cell formations, colonies>20 cells were counted.

[3] = system: SMA-560 glioma cells; assay: as above; format: cell-based, murine
Protocol: as §1, §2

[4] = system: LN-308 glioma cells; assay: Cytotoxicity, LDH release and trypan blue dye exclusion; format: cell-based, human; settings: up to 1 μM for 72 h
Protocol: as §2

[5] = system: SMA-560 glioma cells; assay: as above; format: cell-based, murine; settings: up to 1 μM for 72 h
Protocol: as §2

[6] = system: SMA-560 glioma cells; assay: Flow cytometric cell cycle analysis; format: cell-based, murine; settings: 0.01, 0.1 or 1 μM, 48 h, data not shown
Protocol: The adherent glioma cells were detached nonenzymatically using cell dissociation solution (Sigma). Cell cycle analysis was performed by using fixed and permeabilized glioma cells (70% ethanol). RNA was digested with RNase A (Life Technologies, Inc.). DNA was stained with propidium iodide (50 μg/ml).

[7] = system: glioma cells; assay: Viability of glioma cells in response to serum deprivation; format: cell-based; settings: data not shown
Protocol: as §2

[8] = concentrations required to block TGF-β in the CCL64 bioassay, 48 h
[9] = higher concentrations of up to 1 μM, FIG. 2A

For Fc1ccc(Cl)cc1-c1nc(Nc2ccncc2)c2nccnc2n1 [Compound No. 79], the EC50 ([1]; TGF-β1 or TGF-β2 10 ng/ml, 72 h, FIG. 1A, read-out: EC50 of rescue of TGF-β-mediated inhibition of growth) was about 30 nM, the “growth inhibition mediated by glioma cell supernatants” value ([1]; diluted serum-free SMA-560 or LN-308 supernatants, same concentrations, FIG. 1B) was “nullified” and the proliferation [2, 8] was “no effect”. The growth [2, 9] was “moderately inhibited”, the proliferation [3, 8] was “no effect” and the growth [3, 9] was “moderately inhibited”. For the same compound, the cytotoxic effects [4] was “neiter LDH release nor trypan blue dye exclusion assays revealed cytotoxic effects”, the cytotoxic effects [5] was “neiter LDH release nor trypan blue dye exclusion assays revealed cytotoxic effects” and the cell cycle arrest [6] was “no specific type of cell cycle arrest”. The “viability in response to serum deprivation” value [7] was “did not modulate”.
